Test systems include EKVX NSCLC; HOP-62 NSCLC; M14 melanoma; MOLT-4 leukemia; NCI/ADR-RES ovarian; OVCAR-8 ovarian; RXF 393 renal; SK-MEL-5 melanoma.
What all share (experiment): growth of human tumour cells (NCI), 48 h

Here are results for 11 compounds from PubChem BioAssay (NCI).

Values joined by “and” are separate entries in the source; they are usually repeats but may differ in a detail not shown here. Equal entries are not always repeated.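 Cultured in 96-well plates, cells were exposed to test compound for 48 hours across five concentrations. At the GI50, growth is halved. TGI denotes the concentration required for complete inhibition of growth.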 A value given as a limit tells only on which side of the number the result lay.

As for `COc1ccc(-c2ccc(-c3ccc(C(=N)N)o3)o2)cc1`, the GI50 in the test with EKVX NSCLC was 2790 nM; in the test on HOP-62 NSCLC it was 1.51 µM; with M14 melanoma, 1470 nM; in the test with MOLT-4 leukemia, 1200 nM; with NCI/ADR-RES ovarian, 1.88 µM; in the test with OVCAR-8 ovarian it was 3.19 µM. Further, the GI50 was 2120 nM in the test with RXF 393 renal and 2.8 µM in the test with SK-MEL-5 melanoma. Besides, the TGI in the test with EKVX NSCLC is 14.5 µM; in the test with HOP-62 NSCLC it was 4.51 µM; in the test with M14 melanoma it was 3.87 µM; with MOLT-4 leukemia, 4.3 µM; with NCI/ADR-RES ovarian, 10.1 µM; with OVCAR-8 ovarian, 11.4 µM. The TGI was 8.81 µM in the test with RXF 393 renal and 12.1 µM in the test with SK-MEL-5 melanoma.
For `COc1ccc2c(c1)C(=O)c1c-2n(CCCI)c(=O)c2cc([N+](=O)[O-])ccc12`, the TGI with EKVX NSCLC was 11.8 µM and > 100 µM; with HOP-62 NSCLC, 7.77 µM; with M14 melanoma, 0.59 µM and 1.35 µM; with MOLT-4 leukemia, 0.971 µM and 0.117 µM; in the test on OVCAR-8 ovarian, 50 µM and > 100 µM; with RXF 393 renal it was 3.57 µM and 13.8 µM. Moreover, the TGI with SK-MEL-5 melanoma is 0.438 µM and 0.468 µM. In addition, the GI50 is 0.143 µM with HOP-62 NSCLC; 133 nM and 57 nM with M14 melanoma; 60 nM and 21.4 nM with MOLT-4 leukemia; 0.14 µM and 0.122 µM with NCI/ADR-RES ovarian; 0.266 µM and 0.338 µM with OVCAR-8 ovarian; 319 nM and 789 nM in the test on RXF 393 renal. Besides, the GI50 with SK-MEL-5 melanoma was 0.109 µM and 0.124 µM.
As to `CC1(C)CCC[C@]2(C)[C@H]3[C@H](C#N)c4cc(O)c(O)cc4O[C@@]3(C)CC[C@@H]12`, the TGI with EKVX NSCLC, in the test on HOP-62 NSCLC, in the test with M14 melanoma, in the test on MOLT-4 leukemia, with NCI/ADR-RES ovarian and in the test with OVCAR-8 ovarian was more than 10 µM in each case. The TGI in the test with RXF 393 renal and with SK-MEL-5 melanoma was more than 10 µM in each case.
On to `CSc1nc(SC)c2c(CO)c(Br)n(Cc3ccccc3)c2n1`, for which the TGI in the test with EKVX NSCLC was more than 100 µM; in the test with HOP-62 NSCLC, 80.1 µM; in the test with M14 melanoma it was more than 100 µM; in the test with MOLT-4 leukemia, more than 100 µM; with NCI/ADR-RES ovarian, more than 100 µM; with OVCAR-8 ovarian, 44.1 µM. Further, the TGI in the test on RXF 393 renal is 60.3 µM; in the test on SK-MEL-5 melanoma, more than 100 µM.
On to `Oc1ccc2oc3ncc(Br)c(-c4ccccc4)c3c2c1`, for which the GI50 in the test with EKVX NSCLC was more than 100000 nM; in the test with HOP-62 NSCLC, more than 100 µM; in the test on M14 melanoma, more than 100000 nM; with MOLT-4 leukemia, more than 100000 nM; in the test on NCI/ADR-RES ovarian, more than 100 µM; in the test with OVCAR-8 ovarian it was more than 100 µM. The GI50 in the test on RXF 393 renal was more than 100000 nM; with SK-MEL-5 melanoma, more than 100 µM. Also, the TGI with EKVX NSCLC, in the test on HOP-62 NSCLC, with M14 melanoma, in the test with MOLT-4 leukemia, in the test with NCI/ADR-RES ovarian and in the test on OVCAR-8 ovarian was more than 100 µM in each case. In addition, the TGI in the test on RXF 393 renal and in the test on SK-MEL-5 melanoma was more than 100 µM in each case.
With `Cc1ccc(O)c(NC(=O)c2ccc(CNc3ccnc(C(F)(F)F)c3)cc2)c1`, the GI50 is 4040 nM in the test on EKVX NSCLC; 4.79 µM in the test on HOP-62 NSCLC; 5000 nM in the test with M14 melanoma; 1770 nM in the test on MOLT-4 leukemia; 4.68 µM in the test with NCI/ADR-RES ovarian; 15.9 µM in the test with OVCAR-8 ovarian. Further, the GI50 in the test with RXF 393 renal was 25400 nM; in the test with SK-MEL-5 melanoma, 4.07 µM. Moreover, the TGI was 34.9 µM in the test on EKVX NSCLC; 30.5 µM with HOP-62 NSCLC; 24.2 µM in the test with M14 melanoma; 20.6 µM in the test with MOLT-4 leukemia; 37.8 µM with NCI/ADR-RES ovarian; more than 100 µM in the test with OVCAR-8 ovarian. Further, the figures for the TGI with RXF 393 renal and in the test with SK-MEL-5 melanoma were 63.1 µM and 14.7 µM, respectively.
For `CC(C(O)c1ccccc1)C(O)(C(F)(F)F)C(F)(F)F` (stereo not given), the TGI in the test on EKVX NSCLC, with HOP-62 NSCLC, in the test on M14 melanoma, in the test on MOLT-4 leukemia, in the test with NCI/ADR-RES ovarian and with OVCAR-8 ovarian was more than 100 µM in each case. For the same compound, the TGI with RXF 393 renal and with SK-MEL-5 melanoma was more than 100 µM throughout.
`Cn1cc(-c2ccc(-c3ccc(C4=NC5(CC5)C(=O)N4C[C@@H]4CCN(C(=O)C5CC5)C4)cc3)cc2)cn1`: the GI50 is 12900 nM with EKVX NSCLC; 25.2 µM in the test with HOP-62 NSCLC; 20200 nM in the test on M14 melanoma; 4310 nM with MOLT-4 leukemia; 10.4 µM in the test on NCI/ADR-RES ovarian; 19.4 µM in the test with OVCAR-8 ovarian. Further, the GI50 with RXF 393 renal is 15900 nM; with SK-MEL-5 melanoma it was 2.46 µM. In addition, the TGI was 55.8 µM in the test with EKVX NSCLC; more than 100 µM with HOP-62 NSCLC; more than 100 µM in the test with M14 melanoma; 80.8 µM in the test on MOLT-4 leukemia; more than 100 µM with NCI/ADR-RES ovarian; more than 100 µM in the test with OVCAR-8 ovarian. Moreover, the TGI with RXF 393 renal was found to be 33.3 µM; in the test on SK-MEL-5 melanoma, 15.2 µM.
In the case of `COc1cc(Nc2ncc(F)c(Nc3ccc4c(n3)N(COP(=O)(O)O)C(=O)C(C)(C)O4)n2)cc(OC)c1OC`, the GI50 was 2190 nM and 1930 nM in the test on EKVX NSCLC; 2.25 µM and 0.753 µM in the test with HOP-62 NSCLC; 2710 nM and 2880 nM with M14 melanoma; 3540 nM and 3050 nM in the test with MOLT-4 leukemia; 2.99 µM and 3.01 µM in the test on NCI/ADR-RES ovarian; 3.33 µM and 3.07 µM in the test with OVCAR-8 ovarian. For the same compound, the GI50 with RXF 393 renal is 100 nM and 256 nM; with SK-MEL-5 melanoma, 5.51 µM and 3.54 µM. The TGI is 13.7 µM and > 10 µM with EKVX NSCLC; 10.2 µM and 7.37 µM with HOP-62 NSCLC; 29.4 µM and > 10 µM in the test with M14 melanoma; more than 62 µM in the test on MOLT-4 leukemia; 17.2 µM and > 10 µM in the test on NCI/ADR-RES ovarian; 16.5 µM and > 10 µM with OVCAR-8 ovarian. Besides, the TGI is 0.621 µM and 0.936 µM with RXF 393 renal; 33.3 µM and > 10 µM in the test on SK-MEL-5 melanoma.
Turning to `C#CCOc1cccc(Nc2ncnc3cc(NC(=O)CCl)ccc23)c1`, the GI50 in the test with EKVX NSCLC is 12000 nM; in the test with HOP-62 NSCLC, 11.3 µM; with M14 melanoma, 5110 nM; in the test with MOLT-4 leukemia it was 1960 nM; in the test on NCI/ADR-RES ovarian, 4.13 µM; with OVCAR-8 ovarian it was 3.32 µM. In addition, the GI50 was 13200 nM with RXF 393 renal and 6.31 µM in the test with SK-MEL-5 melanoma. Moreover, the TGI in the test on EKVX NSCLC turned out to be 30 µM; with HOP-62 NSCLC, 28.8 µM; in the test with M14 melanoma, 20.4 µM; with MOLT-4 leukemia, 7.42 µM; with NCI/ADR-RES ovarian, 42.9 µM; in the test with OVCAR-8 ovarian, 11 µM. For the same compound, the TGI in the test on RXF 393 renal stood at 27.7 µM; in the test on SK-MEL-5 melanoma, 19.4 µM.
In the case of `CCNC(=O)O[C@H]1CN[C@H](C#Cc2cc3ncnc(Nc4ccc(OCc5cccc(F)c5)c(Cl)c4)c3s2)C1`, the GI50 in the test on EKVX NSCLC was 668 nM; with HOP-62 NSCLC, 14.9 µM; in the test on M14 melanoma, more than 22600 nM; in the test on MOLT-4 leukemia, 4580 nM; in the test with NCI/ADR-RES ovarian, 6.19 µM; in the test with OVCAR-8 ovarian it was 6.25 µM. In addition, the GI50 in the test on RXF 393 renal was 4750 nM; in the test on SK-MEL-5 melanoma, 10.2 µM. In addition, the TGI in the test with EKVX NSCLC is more than 14.8 µM; in the test on HOP-62 NSCLC, more than 25 µM; with M14 melanoma, more than 25 µM; in the test with MOLT-4 leukemia, more than 25 µM; in the test on NCI/ADR-RES ovarian, more than 25 µM; with OVCAR-8 ovarian, more than 25 µM. For the same compound, the values for the TGI with RXF 393 renal and in the test on SK-MEL-5 melanoma were more than 17.3 µM and more than 25 µM, respectively.
